This is an account of results in patent publication US12466803B2 (priority 2021, dated 2025).

The subject of the first assay is phospho (S293) BCKDHA in human skeletal myocytes. As to the kind of experiment: Phospho BCKDHA Alpha Surefire Cell Assay. It is filed as cell-based. The note with it: 60 minutes with compound, geometric mean.
Take `C[C@@H]1CCc2cc(-c3c(C(=O)O)sc4cc(F)ccc34)ccc2O1` (single isomer, unassigned) [Example 44, 6-fluoro-3-(2-methyl-3,4-dihydro-2H-1-benzopyran-6-yl)-1-benzothiophene-2-carboxylic acid, ENANT-2]: the IC50 – broadly, the concentration needed to halve the response being measured – was above 56 µM.

Consider `C[C@@H]1CCc2c(ccc(-c3c(C(=O)O)sc4cc(F)ccc34)c2F)O1` (single isomer, unassigned) [Example 78, 6-fluoro-3-(5-fluoro-2-methyl-3,4-dihydro-2H-1-benzopyran-6-yl)-1-benzothiophene-2-carboxylic acid, ENANT-2], for which the IC50 was 3.9 µM. Same read-out and setting: the result for `C[C@@H]1CCc2cc(-c3c(C(=O)O)sc4ccccc34)ccc2O1` (single isomer, unassigned) [Example 46, 3-(2-methyl-3,4-dihydro-2H-1-benzopyran-6-yl)-1-benzothiophene-2-carboxylic acid, ENANT-2] reads above 29 µM. Same read-out and setting: under `C[C@@H]1CCc2cc(-c3c(C(=O)O)sc4cc(F)ccc34)c(F)cc2O1` (single isomer, unassigned) [Example 69, 6-fluoro-3-(7-fluoro-2-methyl-3,4-dihydro-2H-1-benzopyran-6-yl)-1-benzothiophene-2-carboxylic acid, ENANT-2] stands 3.6 µM. Still for that read-out and setting: under `C[C@@H]1CCc2cc(-c3c(C(=O)O)sc4ccccc34)ccc2O1` (single isomer, unassigned) [Example 45, 3-(2-methyl-3,4-dihydro-2H-1-benzopyran-6-yl)-1-benzothiophene-2-carboxylic acid, ENANT-1] stands above 60 µM.

The same assay, now with this note: Homo sapiens, 1 h, 60 minutes with compound, geometric mean.
As to `C[C@@H]1CCc2cc(-c3c(C(=O)O)sc4cc(F)ccc34)cc(F)c2O1` (single isomer, unassigned) [Example 72, 6-fluoro-3-(8-fluoro-2-methyl-3,4-dihydro-2H-1-benzopyran-6-yl)-1-benzothiophene-2-carboxylic acid, ENANT-1], the IC50 was 4.5 µM.

For the molecule `COc1c(F)c(F)cc(-c2c(C(=O)O)oc3cc(Cl)ccc23)c1F` [Example 18, 6-Chloro-3-(2,4,5-trifluoro-3-methoxyphenyl)-1-benzofuran-2-carboxylic acid], the IC50 is 0.57 µM. As to `O=C(O)c1sc2cc(F)ccc2c1-c1c(F)cncc1F` [Example 107, ammonium 3-(3,5-difluoropyridin-4-yl)-6-fluoro-1-benzothiophene-2-carboxylate], the IC50 worked out at 8.6 µM. With `CCOc1c(Cl)ccc(-c2c(C(=O)O)sc3cc(F)ccc23)c1F` [Example 51, 3-(4-chloro-3-ethoxy-2-fluorophenyl)-6-fluoro-1-benzothiophene-2-carboxylic acid], the IC50 was 12 µM. Regarding `O=C(O)c1sc2cc(F)ccc2c1-c1ccc(F)c(C2CC2)c1F` [Example 147, 3-(3-cyclopropyl-2,4-difluorophenyl)-6-fluoro-1-benzothiophene-2-carboxylic acid], the IC50 is 0.19 µM. As to `O=C(O)c1sc2cc(F)ccc2c1-c1ccc(Cl)cc1F` [Example 64, 3-(4-chloro-2-fluorophenyl)-6-fluoro-1-benzothiophene-2-carboxylic acid], the IC50 stood at 11 µM. As to `O=C(O)c1sc2cc(F)ccc2c1-c1ccc(Cl)c(F)c1F` [Example 65, 3-(4-chloro-2,3-difluorophenyl)-6-fluoro-1-benzothiophene-2-carboxylic acid], the IC50 worked out at 1.8 µM. On the same count and under the same terms, under `CCCOc1ccc(-c2c(C(=O)O)sc3cc(F)ccc23)c(F)c1F` [Example 39, 3-(2,3-difluoro-4-propoxyphenyl)-6-fluoro-1-benzothiophene-2-carboxylic acid] stands above 60 µM; under `Cc1c(F)ccc(-c2c(C(=O)O)sc3cc(Cl)ccc23)c1F` [Example 141, 6-chloro-3-(2,4-difluoro-3-methylphenyl)-1-benzothiophene-2-carboxylic acid], 0.23 µM. Turning to `COc1cc(-c2c(C(=O)O)sc3cc(F)ccc23)c(F)c(F)c1Cl` [Example 114, 3-(4-chloro-2,3-difluoro-5-methoxyphenyl)-6-fluoro-1-benzothiophene-2-carboxylic acid], the IC50 was 1.8 µM. Same read-out and setting: under `CCOc1ccc(-c2c(C(=O)O)sc3cc(F)ccc23)c(F)c1F` [Example 34, 3-(4-ethoxy-2,3-difluorophenyl)-6-fluoro-1-benzothiophene-2-carboxylic acid] stands above 60 µM; under `CC1CCc2cc(-c3c(C(=O)O)sc4cc(F)ccc34)c(F)cc2O1` (stereo not shown) [Example 67, 6-fluoro-3-(7-fluoro-2-methyl-3,4-dihydro-2H-1-benzopyran-6-yl)-1-benzothiophene-2-carboxylic acid], 5.1 µM; under `O=C(O)c1sc2cc(F)ccc2c1-c1cc(F)c(F)c(F)c1F` [Example 109, 6-fluoro-3-(2,3,4,5-tetrafluorophenyl)-1-benzothiophene-2-carboxylic acid], 0.6 µM. On to `Cc1ncc(F)c(-c2c(C(=O)O)sc3cc(F)ccc23)c1F` [Example 8, 3-(3,5-Difluoro-2-methylpyridin-4-yl)-6-fluoro-1-benzothiophene-2-carboxylic acid], for which the IC50 worked out at 0.72 µM. On the same count and under the same terms, under `O=C(O)c1sc2cc(Cl)ccc2c1-c1cc(F)c(F)cc1F` [Example 133, 6-chloro-3-(2,4,5-trifluorophenyl)-1-benzothiophene-2-carboxylic acid] stands 0.73 µM. As to `Cc1c(Cl)ccc(-c2c(C(=O)O)sc3cc(F)ccc23)c1F` [Example 38, 3-(4-chloro-2-fluoro-3-methylphenyl)-6-fluoro-1-benzothiophene-2-carboxylic acid], the IC50 is 0.46 µM. The same measure, in the same setting: the result for `O=C(O)c1sc2cc(Cl)ccc2c1-c1ccc(F)c(F)c1F` [Example 33, 6-chloro-3-(2,3,4-trifluorophenyl)-1-benzothiophene-2-carboxylic acid] reads 1.1 µM. On the same count and under the same terms, under `O=C(O)c1sc2cc(Cl)ccc2c1-c1ccc(Cl)c(F)c1` [Example 20, 6-Chloro-3-(4-chloro-3-fluorophenyl)-1-benzothiophene-2-carboxylic acid] stands 2.4 µM; under `Cc1c(Cl)ccc(-c2c(C(=O)O)sc3cc(Cl)ccc23)c1F` [Example 146, 6-chloro-3-(4-chloro-2-fluoro-3-methylphenyl)-1-benzothiophene-2-carboxylic acid], 0.11 µM; under `Cc1c(F)c(-c2c(C(=O)O)sc3cc(Cl)ccc23)cc(F)c1Cl` [Example 136, ammonium 6-chloro-3-(4-chloro-2,5-difluoro-3-methylphenyl)-1-benzothiophene-2-carboxylate], 0.12 µM. In the case of `COc1c(F)c(F)cc(-c2c(C(=O)O)sc3cc(Cl)ccc23)c1F` [Example 12, Ammonium 6-chloro-3-(2,4,5-trifluoro-3-methoxyphenyl)-1-benzothiophene-2-carboxylate], the IC50 stood at 0.11 µM. The same measure, in the same setting: under `Cc1cc(-c2c(C(=O)O)sc3cc(F)ccc23)c(F)cc1Cl` [Example 106, 3-(4-chloro-2-fluoro-5-methylphenyl)-6-fluoro-1-benzothiophene-2-carboxylic acid] stands 0.48 µM; under `Cc1c(F)ccc(-c2c(C(=O)O)sc3cc(F)ccc23)c1F` [Example 117, 3-(2,4-difluoro-3-methylphenyl)-6-fluoro-1-benzothiophene-2-carboxylic acid], 0.12 µM.
